How the values were obtained:
MKN-45 [1] = assay: cells; conditions: Homo sapiens, MKN-45, 72 h
[2] = molecular target: T1, Hepatocyte growth factor receptor (Homo sapiens, UniProt P08581); assay: Inhibition of c-Met (unknown origin) kinase activity using poly(Glu-Tyr) at 4:1 ratio as substrate in presence of ATP incubated for 30 mins by HTRF assay
BaF3 [3] = assay: cells; conditions: Mus musculus, BaF3, 72 h
SNU-5 = assay: cells; conditions: Homo sapiens, SNU-5, 72 h
NIH3T3 [4] = assay: cells; conditions: Mus musculus, NIH3T3, 72 h
[5] = Cmax in mouse at 10 mg/kg, po; assay type: ADME, organism-based; parameters: dose 10 mg/kg, route po; conditions: in vivo
[6] = Oral bioavailability in mouse at 10 mg/kg; assay type: ADME, organism-based; conditions: in vivo
[7] = AUC in mouse at 10 mg/kg, po; assay type: ADME, organism-based; parameters: dose 10 mg/kg, route po; conditions: in vivo
[8] = Half life in mouse at 10 mg/kg, po; assay type: ADME, organism-based; conditions: in vivo
NIH3T3 [9] = assay: In vivo antitumor activity against mouse NIH3T3 cells expressing […] protein xenografted in nude mouse assessed as tumor growth inhibition at 100 mg/kg,po for 11 days; assay type: functional; conditions: NIH3T3, 264 h, time 11 day, read-out: TGI
MKN-45 [10] = assay: Antiproliferative activity against human MKN-45 cells assessed as reduction in cell proliferation incubated for 48 hrs; assay type: functional, cell-based; conditions: MKN-45, 48 h
[11] = molecular target: T1, Hepatocyte growth factor receptor; assay: Inhibition of c-Met (unknown origin) kinase activity using biotinylated poly-tyrosine as substrate in presence of ATP incubated for 1 hr by AlphaQuest analysis
[12] = molecular target: T1, Hepatocyte growth factor receptor; assay: Inhibition of c-Met (unknown origin) using poly(Glu-Tyr) at 4:1 ratio as substrate in presence of ATP incubated for 60 mins by ELISA
[13] = molecular target: T1, Hepatocyte growth factor receptor; assay: Inhibition of c-Met (unknown origin)
MKN-45 [14] = assay: Antiproliferative activity against human MKN-45 cells assessed as reduction in cell proliferation incubated for 72 hrs by CellTiter-Glo luminescent assay; assay type: functional, cell-based; conditions: MKN-45, 72 h
EBC-1 [15] = assay: Antiproliferative activity against human EBC-1 cells assessed as reduction in cell proliferation incubated for 72 hrs by CellTiter-Glo luminescent assay; assay type: functional, cell-based; conditions: EBC-1, 72 h
Bel-7402 = assay: Antiproliferative activity against human Bel-7402 cells assessed as reduction in cell viability incubated for 24 hrs by MTT assay; assay type: functional, cell-based; conditions: Bel-7402, 24 h
A549 [16] = assay: Antiproliferative activity against human A549 cells assessed as reduction in cell viability incubated for 24 hrs by MTT assay; assay type: functional, cell-based; conditions: A549, 24 h
HepG2 [17] = assay: Antiproliferative activity against human HepG2 cells assessed as reduction in cell viability incubated for 24 hrs by MTT assay; assay type: functional, cell-based; conditions: HepG2, 24 h
HeLa = assay: Antiproliferative activity against human HeLa cells assessed as reduction in cell viability incubated for 24 hrs by MTT assay; assay type: functional, cell-based
MKN-45 [18] = assay: Antiproliferative activity against human MKN-45 cells assessed as reduction in cell proliferation incubated for 48 hrs by sulforhodamine B assay; assay type: functional, cell-based; conditions: MKN-45, 48 h
A549 [19] = assay: Antiproliferative activity against human A549 cells assessed as reduction in cell proliferation incubated for 48 hrs by sulforhodamine B assay; assay type: functional, cell-based; conditions: A549, 48 h
HT-29 [20] = assay: Antiproliferative activity against human HT-29 cells assessed as reduction in cell proliferation incubated for 48 hrs by sulforhodamine B assay; assay type: functional, cell-based; conditions: HT-29, 48 h
[21] = molecular target: T1, Hepatocyte growth factor receptor; assay: Inhibition of c-Met (unknown origin) kinase activity using peptide as substrate in presence of 33P-ATP incubated for 20 to 30 mins by scintillation counter analysis
[22] = molecular target: T1, Hepatocyte growth factor receptor; assay: Inhibition of His6-tagged recombinant human c-Met using 5FAM-KKK-SPGEYVNIGFG-NH2 as substrate in presence of ATP incubated for 60 mins by AiphaQuest assay
EBC-1 [23] = assay: cells; conditions: Homo sapiens, EBC-1, 72 h
BaF3 [24] = assay: Antiproliferative activity against mouse BaF3 cells expressing […] protein assessed as reduction in cell proliferation incubated for 72 hrs by Cell Titer-Glo luminescence assay; assay type: functional, cell-based; conditions: BaF3, 72 h
[25] = molecular target: T1, Hepatocyte growth factor receptor; assay: Inhibition of c-Met (unknown origin) kinase activity using peptide as substrate in presence of ATP incubated for 1 hrs by ELISA
MKN-45 [26] = assay: cells; conditions: Homo sapiens, MKN-45, 72 h; remark: listed apart in the source
HT-29 [27] = assay: Antiproliferative activity against human HT-29 cells assessed as reduction in cell proliferation incubated for 72 hrs by MTT assay; assay type: functional, cell-based; conditions: HT-29, 72 h
[28] = molecular target: T1, Hepatocyte growth factor receptor; assay: Inhibition of recombinant c-Met (unknown origin) using peptide as substrate in presence of ATP by TR-FRET assay
Hs746T = assay: Antiproliferative activity against human Hs746T cells assessed as reduction in cell viability incubated for 72 hrs by WST-8 assay; assay type: functional, cell-based
HepG2 [29] = assay: Antiproliferative activity against human HepG2 cells assessed as reduction in cell proliferation incubated for 48 hrs by MTT assay; assay type: functional, cell-based; conditions: HepG2, 48 h
EBC-1 [30] = assay: cells; conditions: Homo sapiens, EBC-1, 72 h; remark: listed apart in the source
BaF3 [31] = assay: cells; conditions: Mus musculus, BaF3, 72 h; remark: listed apart in the source
HUVEC = assay: cells; conditions: Homo sapiens, 72 h

T1 sequence (P08581 whole entry): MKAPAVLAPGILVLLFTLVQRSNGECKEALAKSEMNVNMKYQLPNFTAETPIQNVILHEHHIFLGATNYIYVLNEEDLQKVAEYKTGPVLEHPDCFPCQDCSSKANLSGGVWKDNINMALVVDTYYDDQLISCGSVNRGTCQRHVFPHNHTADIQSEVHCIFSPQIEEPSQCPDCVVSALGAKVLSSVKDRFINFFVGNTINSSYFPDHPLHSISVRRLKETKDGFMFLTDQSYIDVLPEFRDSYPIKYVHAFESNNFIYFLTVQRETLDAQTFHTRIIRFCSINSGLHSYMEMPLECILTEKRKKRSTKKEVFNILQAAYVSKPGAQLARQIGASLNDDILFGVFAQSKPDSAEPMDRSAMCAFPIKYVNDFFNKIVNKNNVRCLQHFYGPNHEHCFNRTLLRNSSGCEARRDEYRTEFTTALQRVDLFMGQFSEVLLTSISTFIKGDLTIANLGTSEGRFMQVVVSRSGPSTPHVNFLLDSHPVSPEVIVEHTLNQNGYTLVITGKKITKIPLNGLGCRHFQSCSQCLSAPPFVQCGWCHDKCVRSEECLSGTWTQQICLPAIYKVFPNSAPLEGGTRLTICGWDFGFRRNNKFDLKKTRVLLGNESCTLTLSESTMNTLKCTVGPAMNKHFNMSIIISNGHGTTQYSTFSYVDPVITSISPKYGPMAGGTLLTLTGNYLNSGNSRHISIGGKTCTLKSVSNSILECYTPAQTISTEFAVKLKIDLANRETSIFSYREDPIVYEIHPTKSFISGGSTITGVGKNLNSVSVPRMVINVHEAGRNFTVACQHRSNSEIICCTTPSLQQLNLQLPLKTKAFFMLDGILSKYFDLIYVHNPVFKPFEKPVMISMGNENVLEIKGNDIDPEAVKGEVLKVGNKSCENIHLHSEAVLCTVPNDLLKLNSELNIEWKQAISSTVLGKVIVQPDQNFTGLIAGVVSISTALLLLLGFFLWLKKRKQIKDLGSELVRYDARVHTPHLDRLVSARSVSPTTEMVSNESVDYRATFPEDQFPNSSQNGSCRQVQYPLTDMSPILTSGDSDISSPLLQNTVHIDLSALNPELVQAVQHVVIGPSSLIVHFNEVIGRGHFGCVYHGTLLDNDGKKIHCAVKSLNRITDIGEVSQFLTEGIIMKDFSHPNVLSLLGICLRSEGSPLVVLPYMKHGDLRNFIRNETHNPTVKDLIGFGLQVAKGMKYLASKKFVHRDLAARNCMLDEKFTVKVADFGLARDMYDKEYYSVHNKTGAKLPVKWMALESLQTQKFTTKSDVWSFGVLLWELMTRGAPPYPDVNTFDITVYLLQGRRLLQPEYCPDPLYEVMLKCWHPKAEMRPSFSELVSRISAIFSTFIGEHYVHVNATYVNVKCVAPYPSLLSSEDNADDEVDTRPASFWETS

Structure (SMILES): COc1cc2c(Oc3ccc(NC(=O)Nc4nc5c(C)ccc(C)c5s4)cc3F)ccnc2cc1OCCCN1CCN(C)CC1
- IC50 (MKN-45 [1]): 0.06 µM
- IC50 [2]: 0.0176 µM

Structure (SMILES): O=C(Nc1ccc(Oc2ccnc3[nH]c(-c4ccsc4)nc23)cc1)c1cccn(-c2ccc(F)cc2)c1=O
- IC50 (BaF3 [3]): 0.59 µM
- IC50 (SNU-5): 5.3 µM
- IC50 (NIH3T3 [4]): 1.6 µM
- Cmax [5]: 2.17 µg/mL
- bioavailability [6]: 28.3%
- AUC [7]: 6.28 µg·h/mL
- half-life [8]: 2.07 h
- IC50 (MKN-45 [1]): 4.3 µM
- inhibition in vivo at 100 mg/kg (NIH3T3 [9]): 30.9%

Structure (SMILES): OC1CCC(n2cc(-c3ncc4ncn(Cc5ccc6ncccc6c5)c4n3)cn2)CC1 (stereo not given)
- IC50 (MKN-45 [10]): 125 µM
- IC50 [11]: 10.4 µM

Structure (SMILES): COC(=O)c1ccc(N2NC(=O)/C(=C/c3ccc(-c4ccc(Cl)c(C(=O)O)c4)o3)C2=O)cc1
- IC50 [12]: 9.5 µM

Structure (SMILES): COc1cc2c(Oc3ccc(NC(=O)/C=C/S(=O)(=O)c4ccccc4)cc3F)ccnc2cc1OCCCN1CCN(C)CC1
- IC50 (MKN-45 [1]): 0.45 µM

Structure (SMILES): c1cnc2ccc(Cn3nnc4ncc(-c5ccc6[nH]c7c(c6c5)CNCC7)nc43)cc2c1
- IC50 [13]: 0.0145 µM

Structure (SMILES): Fc1ccc(Cl)c(Sc2n[nH]c3ncc(-c4cnn(C5CCNCC5)c4)cc23)c1Cl
- IC50 (MKN-45 [14]): 0.329 µM
- IC50 (EBC-1 [15]): 0.479 µM

Structure (SMILES): CC(C)=C1C/C=C(\C)CC/C=C(\C)CC1OC(=O)c1ccc(C)cc1 (stereo not given)
- IC50 (Bel-7402): 75.9 µM
- IC50 (A549 [16]): 84.9 µM
- IC50 (HepG2 [17]): 68.2 µM
- IC50 (HeLa): 83.6 µM

Structure (SMILES): O=C(CSc1nc(=O)c(/C=C/c2ccco2)n[nH]1)N/N=C/c1cccs1
- IC50 (MKN-45 [18]): 0.06 µM
- IC50 (A549 [19]): 0.02 µM
- IC50 (HT-29 [20]): 0.03 µM
- IC50 [21]: 4.31 µM

Structure (SMILES): CC(C)=C1C/C=C(\C)CC/C=C(\C)CC1OS(=O)(=O)c1ccc(C)cc1 (stereo not given)
- IC50 (Bel-7402): 71.8 µM
- IC50 (A549 [16]): 84.5 µM
- inhibition [22]: 56%
- IC50 (HepG2 [17]): 56.2 µM
- IC50 (HeLa): 88.6 µM

Structure (SMILES): COc1ccc2c(OCc3nnc4ncc(-c5ccccc5)nn34)ccnc2c1
- IC50 (EBC-1 [23]): 0.012 µM
- IC50 (MKN-45 [1]): 0.021 µM

Structure (SMILES): COc1cc2c(Oc3ccc(NC(=O)c4cn(-c5ccccc5C(F)(F)F)c5ccccc5c4=O)cc3F)ccnc2cc1OCCCN1CCCCC1
- IC50 (MKN-45 [1]): 0.01 µM
- IC50 [2]: 0.00135 µM

Structure (SMILES): COc1cc2c(Oc3ccc(N/C=C4\C(=O)N(c5ccccc5C(F)(F)F)N=C4C)cc3F)ccnc2cc1OCCCN1CCOCC1
- IC50 (MKN-45 [1]): 0.03 µM
- IC50 [2]: 0.0022 µM

Structure (SMILES): Clc1ccc(-c2cn3cccc(COc4nnc5ccc(Cl)nn45)c3n2)c(Cl)c1
- IC50 (BaF3 [24]): 0.253 µM
- IC50 [25]: 0.0534 µM

Structure (SMILES): COc1cc2nccc(Oc3ccc(NC(=O)C4(Cl)CCCN(c5ccc(F)cc5)C4=O)cc3F)c2cc1OC (stereo not given)
- IC50 (MKN-45 [26]): 0.57 µM

Structure (SMILES): COc1cc2c(Oc3ccc(N/C=C(\C#N)C(=O)Nc4ccc(C)cc4)cc3F)ccnc2cc1OCCCN1CCN(C)CC1
- IC50 (HT-29 [27]): 0.04 µM
- IC50 (MKN-45 [1]): 0.39 µM

Structure (SMILES): Cc1ccc(N2NC(=O)/C(=C/c3ccc(-c4cc([N+](=O)[O-])ccc4O)o3)C2=O)cc1C
- IC50 [12]: 0.46 µM

Structure (SMILES): Cn1cc(-c2ccc(=O)n(C[C@@H]3CN(c4ncc(OCC5CCNCC5)cn4)CCO3)n2)cn1
- IC50 [28]: 0.019 µM
- IC50 (Hs746T): 3.17 µM

Structure (SMILES): CC(C)(C)OC(=O)N1CCc2c(sc3ncnc(Oc4ccc(NC(=O)C5(C(=O)Nc6ccc(F)cc6)CC5)cc4F)c23)C1
- IC50 (HepG2 [29]): 1.7 µM

Structure (SMILES): CNC(=O)c1ccc(-c2ccc3ncc(S(=O)(=O)n4ccc5cnccc54)n3c2)cc1F
- IC50 (MKN-45 [26]): 0.0099 µM
- IC50 (EBC-1 [30]): 0.0198 µM

Structure (SMILES): Cc1c(C(=O)Nc2ccc(Oc3ccnc(-c4nncn4CCCN4CCN(C)CC4)c3)c(F)c2)c(=O)n(-c2ccccc2)n1C
- IC50 (BaF3 [31]): 0.13 µM
- IC50 (HUVEC): 0.3 µM

Reference: ChEMBL document CHEMBL5260829, “Recent advances in the discovery of small molecule c-Met Kinase inhibitors” (Eur J Med Chem, 2018)
